Data on 1 compound can be found in patent US7585998B2 (Bayer CropScience AG, priority 2003, dated 2009).

By chromatographic logP is commonly meant a lipophilicity value derived from retention on a column.

The nature of the data set: log P determination by HPLC on a reverse phase column (C 18), EEC Directive 79/831 Annex V.A8. Type of data set: physicochemical. The conditions noted are these: pH 2.3, 0.1% aqueous phosphoric acid and acetonitrile as eluents, linear gradient 10% to 90% acetonitrile, 43° C. As to the method: The determination of the log P values reported in the above tables and preparation examples is carried out in compliance with EEC Directive 79/831 Annex V.A8 by HPLC (High Performance Liquid Chromatography) on a reverse phase column (C 18). Temperature: 43° C. The determination is carried out in the acid region at pH 2.3 with 0.1% aqueous phosphoric acid and acetonitrile as eluents; linear gradient of 10% acetonitrile to 90% acetonitrile. Calibration is carried out with unbranched alkan-2-ones (with 3 to 16 carbon atoms) the log P values of which are known (determination of the log P values on the basis of retention times by linear interpolation between two sequential alkanones).

Compound `CCOC(=O)c1sc(C)nc1C(F)F` gave a chromatographic logP of 2.18.
